Assay results as given in patent publication US9815787B2, “Sulfonamide derivative or pharmaceutically acceptable acid addition salt thereof” (UNIVERSITY OF TSUKUBA, priority 2013, dated 2017).

Molecular target: T1, OX2R (Homo sapiens, UniProt O43614)
T1 construct: expressed in transfected cells; host or cells: CHO (Chinese hamster ovary) cells constitutively expressing the OX2R gene and NFAT-luciferase (CHOOX2R)
T1 sequence (O43614 1-444): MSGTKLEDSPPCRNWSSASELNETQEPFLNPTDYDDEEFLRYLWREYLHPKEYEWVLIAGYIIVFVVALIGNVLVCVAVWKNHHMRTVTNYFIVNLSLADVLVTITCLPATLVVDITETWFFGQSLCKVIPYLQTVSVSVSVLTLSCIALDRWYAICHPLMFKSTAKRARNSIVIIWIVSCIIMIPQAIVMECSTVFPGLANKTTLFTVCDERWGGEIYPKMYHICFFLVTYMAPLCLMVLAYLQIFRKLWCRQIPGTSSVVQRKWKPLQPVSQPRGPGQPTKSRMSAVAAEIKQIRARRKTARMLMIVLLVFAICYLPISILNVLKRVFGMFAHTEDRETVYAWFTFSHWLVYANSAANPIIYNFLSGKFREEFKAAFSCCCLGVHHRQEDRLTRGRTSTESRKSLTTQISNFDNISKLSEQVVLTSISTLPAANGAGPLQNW
Assay: Evaluation of agonist activity against OX2R (CHOOX2R cells, Fura2AM fluorescence, FDSS3000)
Assay type: cell-based
Procedure: Evaluation of Agonist Activity Against OX2R
NFAT-luciferase gene and OX2R gene were each constitutively expressed in CHO cell, which is a cell line derived from Chinese hamster ovary to establish a cell line (CHOOX2R). The cells thereof were sown on a 96 well plate at 10000 cells/well, and cultured in a 5% FBS-added DMEM medium for 48 hr. […] After washing, HEPES buffer (75 μL) was added, a test compound solution (25 μL) was added, and changes in the fluorescence intensity were measured by FDSS3000 (Hamamatsu Photonics K.K.). The test compound was dissolved in DMSO (final concentration of DMSO was 1%), and diluted with HEPES buffer to a final concentration of 0.1 μM, 1.0 μM or 10 μM.

[1] = test compound 0.1 μM; CHOOX2R cells; relative to orexin-A as full agonist (100%)
[2] = test compound 1.0 μM; CHOOX2R cells; relative to orexin-A as full agonist (100%)
[3] = test compound 10 μM; CHOOX2R cells; relative to orexin-A as full agonist (100%)
[4] = test compound 0.1 μM; relative to orexin-A as full agonist (100%); CHOOX2R cells
[5] = test compound 1.0 μM; relative to orexin-A as full agonist (100%); CHOOX2R cells
[6] = test compound 10 μM; relative to orexin-A as full agonist (100%); CHOOX2R cells
[7] = OX2R agonist activity; CHOOX2R cells
[8] = conversion with orexin-A as full agonist (maximum agonist activity 100%)

Question: `COc1ccccc1C(=O)NCCNc1cccc(NS(=O)(=O)c2cc(-c3cccc(NCC(C)C)c3)ccc2OC)c1` [Example 38, N-(2-((3-(3′-(isobutylamino)-4-methoxy-[1,1′-biphenyl]-3-ylsulfonamide)phenyl)amino)ethyl)-2-methoxybenzamide] was tested. Which “Response (0.1 μM (%))” value [1] did it give?
Answer: Its value is 8%.

Question: What about the “Response (1.0 μM (%))” value [2] of the same compound?
Answer: The value was 37%.

Question: And the “Response (10 μM (%))” value [3]?
Answer: Its value is 113%.

Question: With `COc1ccc(-c2ccccc2F)cc1S(=O)(=O)Nc1cccc(NCCNC(=O)c2ccccc2Cl)c1` [Example 7, 2-chloro-N-(2-((3-(2′-fluoro-4-methoxy-[1,1′-biphenyl]-3-ylsulfonamide)phenyl)amino)ethyl)benzamide] as the compound, how does the “Response (0.1 μM (%))” value [4] read?
Answer: Its value is 10%.

Question: What about the “Response (1.0 μM (%))” value [5] of the same compound?
Answer: The value was 62%.

Question: And the “Response (10 μM (%))” value [6]?
Answer: Its value is 145%.

Question: For `COc1ccc(-c2cccc(C(=O)N(C)C)c2)cc1S(=O)(=O)Nc1cccc(NCCNC(=O)c2ccccc2Cl)c1` [Example 42, 3′-(N-(3-((2-(2-chlorobenzamido)ethyl)amino)phenyl)sulfamoyl)-4′-methoxy-N,N-dimethyl-[1,1′-biphenyl]-3-carboxamide], which EC50 [7] is on record?
Answer: The EC50 was 0.031 µM.

Question: And the Emax [8]?
Answer: Its Emax is 90%.

Question: What about the “Response (0.1 μM (%))” value [1] of the same compound?
Answer: The value was 65%.

Question: And the “Response (1.0 μM (%))” value [2]?
Answer: Its value is 103%.

Question: And the “Response (10 μM (%))” value [3]?
Answer: Its value is 114%.

Question: With `COc1ccc(-c2cccc(C(=O)N(C)C)c2)cc1S(=O)(=O)Nc1cccc(NCCNC(=O)c2ccccc2C)c1` [Example 65, 4′-methoxy-N,N-dimethyl-3′-(N-(3-((2-(2-methylbenzamido)ethyl)amino)phenyl)sulfamoyl)-[1,1′-biphenyl]-3-carboxamide] as the compound, how does the EC50 [7] read?
Answer: The EC50 was 0.8 µM.

Question: What about the Emax [8] of the same compound?
Answer: The Emax was 85%.

Question: And the “Response (0.1 μM (%))” value [1]?
Answer: Its value is 74%.

Question: And the “Response (1.0 μM (%))” value [2]?
Answer: Its value is 96%.

Question: And the “Response (10 μM (%))” value [3]?
Answer: The value was 74%.

Question: Which results are given for `COc1ccc(-c2cccc(C(=O)N(C)C)c2)cc1S(=O)(=O)Nc1cccc(NCCNC(=O)c2cc(F)ccc2F)c1` [Example 53, 3′-(N-(3-((2-(2,5-difluorobenzamido)ethyl)amino)phenyl)sulfamoyl)-4′-methoxy-N,N-dimethyl-[1,1′-biphenyl]-3-carboxamide]?
Answer: EC50 [7]: 1.15 µM; Emax [8]: 87%; Response (0.1 μM (%)) [1]: 46%; Response (1.0 μM (%)) [2]: 89%; Response (10 μM (%)) [3]: 66%

Question: What does the source list for `COc1ccccc1C(=O)NCCNc1cccc(NS(=O)(=O)c2cccc(-c3cccc(C(=O)N(C)C)c3)c2)c1` [Example 110, 3′-(N-(3-((2-(2-methoxybenzamido)ethyl)amino)phenyl)sulfamoyl)-N,N-dimethyl-[1,1′-biphenyl]-3-carboxamide]?
Answer: Response (0.1 μM (%)) [4]: <5%; Response (1.0 μM (%)) [5]: <5%; Response (10 μM (%)) [6]: 28%

Question: How did the “Response (0.1 μM (%))” value [4] turn out when `COc1ccccc1C(=O)NCCNc1cccc(NS(=O)(=O)c2cc(-c3c(F)cccc3OC)ccc2OC)c1` [Example 23, N-(2-((3-(2′-fluoro-4,6′-dimethoxy-[1,1′-biphenyl]-3-ylsulfonamide)phenyl)amino)ethyl)-2-methoxybenzamide] was run?
Answer: Its value is <5%.

Question: And the “Response (1.0 μM (%))” value [5]?
Answer: The value was <5%.

Question: What about the “Response (10 μM (%))” value [6] of the same compound?
Answer: The value was <5%.

Question: Which “Response (0.1 μM (%))” value [4] does the source give for `COc1cc(C)c(-c2cccc(C(=O)N(C)C)c2)cc1S(=O)(=O)Nc1cccc(NCCNC(=O)c2sccc2Cl)c1` [Example 105, 3-chloro-N-(2-((3-(3′-(dimethylcarbamoyl)-4-methoxy-6-methyl-[1,1′-biphenyl]-3-ylsulfonamido)phenyl)amino)ethyl)thiophene-2-carboxamide] here?
Answer: Its value is 78%.

Question: And the “Response (1.0 μM (%))” value [5]?
Answer: The value was 84%.

Question: And the “Response (10 μM (%))” value [6]?
Answer: Its value is 79%.

Question: With `COc1ccccc1C(=O)NCCNc1cccc(NS(=O)(=O)c2cc(-c3cccc(C(=O)N(C)C(C)(C)C)c3)ccc2OC)c1` [Example 76, N-(tert-butyl)-4′-methoxy-3′-(N-(3-((2-(2-methoxybenzamido)ethyl)amino)phenyl)sulfamoyl)-N-methyl-[1,1′-biphenyl]-3-carboxamide] as the compound, how does the “Response (0.1 μM (%))” value [1] read?
Answer: The value was 24%.

Question: And the “Response (1.0 μM (%))” value [2]?
Answer: Its value is 95%.

Question: And the “Response (10 μM (%))” value [3]?
Answer: The value was 98%.
